Results from patent publication US20260166029A1, “METHODS AND SYSTEMS FOR TREATING DISEASE USING AN ATR/CHK1 SIGNALING PATHWAY INHIBITOR” (Acrivon Therapeutics, Inc., priority 2022, published 2026).
Read-outs that look alike come from different tables or passages of the source.

Experiments:
[1] = tested on: ST416 ovarian PDX tumor; assay: Response to prexasertib treatment in ovarian PDX tumor model (Example 3); assay type: in vivo
Description: (§1) To evaluate whether the provided Response-Predictive Signature can predict response to prexasertib treatment, the predicted response for each PDX model was compared to an experimentally determined response to prexasertib treatment for the same PDX model. The experimentally measured response was quantified as follows: if a treated tumor reduced in size/volume, then the percent regression compared to an initial volume of a treated tumor was provided, if a treated tumor increased in size/volume, then a percent ratio of the treated tumor's growth was divided by control tumor (i.e., untreated tumor) growth (d[T/C]). Negative values for regression percentage indicate response to treatment with prexasertib, while positive values indicate continued growth and non-response to prexasertib treatment. The experimentally measured response was further categorized as complete regression (near −100% regression), partial regression (−50% to −100% regression), stasis (<20% median tumor growth to −50% regression), and growth (>20% median tumor growth).

[2] = tested on: ST022 ovarian PDX tumor; assay: as above; assay type: in vivo
Description: as §1

[3] = tested on: ST255 ovarian PDX tumor; assay: as above; assay type: in vivo
Description: as §1

[4] = tested on: ST025 ovarian PDX tumor; assay: as above; assay type: in vivo
Description: as §1

[5] = tested on: ST1526 ovarian PDX tumor; assay: as above; assay type: in vivo
Description: as §1

[6] = tested on: ST1986B ovarian PDX tumor; assay: as above; assay type: in vivo
Description: as §1

[7] = tested on: ST1301 ovarian PDX tumor; assay: as above; assay type: in vivo
Description: as §1

[8] = tested on: ST1949 ovarian PDX tumor; assay: as above; assay type: in vivo
Description: as §1

[9] = tested on: ST2249 ovarian PDX tumor; assay: as above; assay type: in vivo; design: key to Response type: CR = complete regression; PR = partial regression; S = stasis; G = growth
Description: as §1

[10] = tested on: ST2067 ovarian PDX tumor; assay: as above; assay type: in vivo; design: key to Response type: CR = complete regression; PR = partial regression; S = stasis; G = growth
Description: as §1

[11] = tested on: ST260 ovarian PDX tumor; assay: as above; assay type: in vivo; design: key to Response type: CR = complete regression; PR = partial regression; S = stasis; G = growth
Description: as §1

[12] = tested on: ST206B ovarian PDX tumor; assay: as above; assay type: in vivo; design: key to Response type: CR = complete regression; PR = partial regression; S = stasis; G = growth
Description: as §1

[13] = tested on: ST182B ovarian PDX tumor; assay: as above; assay type: in vivo; design: key to Response type: CR = complete regression; PR = partial regression; S = stasis; G = growth
Description: as §1

[14] = tested on: ST1827 ovarian PDX tumor; assay: as above; assay type: in vivo; design: key to Response type: CR = complete regression; PR = partial regression; S = stasis; G = growth
Description: as §1

[15] = tested on: OVCAR3 cells; assay: Cell Titer Glo 2.0 viability after biomarker siRNA knockdown (Example 6); assay type: cell-based; conditions: Homo sapiens, OVCAR-3, 72 h, read-out: absolute EC50
Experimental: OVCAR3 cells cultured in RPMI medium with 20% FBS were transfected with siRNA (Silencer Select, cat #4390824, ThermoFisher) targeting TRIM28 (KAP1) CCNE1, CCNA2, or CHEK2, as compared with a negative control siRNA (cat #4390843, ThermoFisher) using RNAiMAX transfection reagent (ThermoFisher). Twenty-four hours after the transfection, cells were reseeded into 384-well plates and left to adhere for 24 hours before being treated with increasing doses of prexasertib. Relative cell viability against a DMSO control was assessed 72 hours after drug treatment using Cell Titer Glo 2.0 (Promega) and a SpectraMax microplate reader. Error bars represent standard deviations from quadruplicate samples.

[16] = tested on: HCT116; assay: Cell viability, sensitivity to prexasertib (Example 1); design: species or system human; conditions: HCT116 cell line; based on EC50 from prior publications
Experimental: (§2) Predicted response to prexasertib was compared to experimentally measured sensitivity to prexasertib. […] EC50 values of less than or equal to 1 μM were considered to be actual responders, while values of greater than 1 μM were considered to be actual non-responders.

[17] = tested on: PANC1; assay: as above; design: species or system human; conditions: PANC1 cell line; based on EC50 from prior publications
Experimental: as §2

[18] = tested on: PC3; assay: Cell Titer Glo 2.0 relative cell viability, 72 h (Example 10); assay type: cell-based; conditions: Homo sapiens, PC-3, PC3 cell line, read-out: Abs IC50
Experimental: (§3) The present Example provides experimental evidence that cell lines predicted to be sensitive to a Chk1 inhibitor (e.g., prexasertib, are also sensitive to Wee1 inhibitors (e.g., adavosertib (AZD1775, MK1775) and azenosertib (Zn-C3)). Cell lines were treated with increasing doses of either prexasertib, adavosertib, or azenosertib, and relative cell viability against a DMSO control was assessed 72 h after drug treatment using Cell Titer Glo 2.0 (Promega) and a SpectraMax microplate reader. The results are shown in FIGS. 19A-19C. Error bars represent standard deviations from quadruplicate samples.

[19] = tested on: BxPC3; assay: as above; assay type: cell-based; conditions: Homo sapiens, BXPC-3, BxPC3 cell line, read-out: Abs IC50
Experimental: as §3

[20] = tested on: T47D; assay: as above; assay type: cell-based; conditions: Homo sapiens, T47D cell line, read-out: Abs IC50
Experimental: as §3

[21] = tested on: OVCAR3; assay: as above; assay type: cell-based; conditions: Homo sapiens, OVCAR-3, OVCAR3 cell line, read-out: Abs IC50
Experimental: as §3

In the case of `COc1cccc(OCCCN)c1-c1cc(Nc2cnc(C#N)cn2)n[nH]1` [prexasertib, 5-(5-(2-(3-aminopropoxy)-6-methoxyphenyl)-1H-pyrazol-3-ylamino)pyrazine-2-carbonitrile], the Response type [1] is reported as “S (S = stasis)”, the “Best d[T/C], or Regression” value ([1]; negative = regression) is reported as −9% and the Response type [2] is reported as “G (G = growth)”. For the same molecule, the “Best d[T/C], or Regression” value ([2]; negative = regression) was 21.1%, the Response type [3] was “S (S = stasis)” and the “Best d[T/C], or Regression” value ([3]; negative = regression) was −8.9%. For the same molecule, the Response type [4] was “G (G = growth)”, the “Best d[T/C], or Regression” value ([4]; negative = regression) was 48.9% and the Response type [5] was “PR (PR = partial regression)”. For the same molecule, the “Best d[T/C], or Regression” value ([5]; negative = regression) was −90%, the Response type [6] was “G (G = growth)” and the “Best d[T/C], or Regression” value ([6]; negative = regression) was 35.1%. For the same molecule, the Response type [7] was “S (S = stasis)”, the “Best d[T/C], or Regression” value ([7]; negative = regression) was 1.2% and the Response type [8] was “G (G = growth)”. For the same molecule, the “Best d[T/C], or Regression” value ([8]; negative = regression) was 56%, the Response type [9] was “CR” and the “Best d[T/C], or Regression” value ([9]; negative = regression) was −100%. The Response type [10] was “CR”, the “Best d[T/C], or Regression” value ([10]; negative = regression) was −100% and the Response type [11] was “CR”. For the same molecule, the “Best d[T/C], or Regression” value ([11]; negative = regression) was −100%, the Response type [12] was “CR” and the “Best d[T/C], or Regression” value ([12]; negative = regression) was −100%. For the same molecule, the Response type [13] was “CR”, the “Best d[T/C], or Regression” value ([13]; negative = regression) was −100% and the Response type [14] was “CR”. For the same molecule, the “Best d[T/C], or Regression” value ([14]; negative = regression) was −100%, the EC50 ([15]; BM1 (CHEK2 (Chk2)) siRNA knockdown) was 31 nM and the EC50 ([15]; BM2 (TRIM28 (KAP1)) siRNA knockdown) was greater than 10000 nM. For the same molecule, the EC50 ([15]; BM3 (CCNA2 (cyclin A2)) siRNA knockdown) was 164 nM, the EC50 ([15]; BM3 (CCNE1) siRNA knockdown) was greater than 10000 nM and the EC50 ([15]; negative control siRNA in the BM1 (CHEK2 (Chk2)) knockdown experiment) was 12 nM. For the same molecule, the EC50 ([15]; negative control siRNA in the BM2 (TRIM28 (KAP1)) knockdown experiment) was 100 nM, the EC50 ([15]; negative control siRNA in the BM3 (CCNA2 (cyclin A2)) knockdown experiment) was 24 nM and the EC50 ([15]; negative control siRNA in the BM3 (CCNE1 (cyclin E1)) knockdown experiment) was 25 nM. The Actual response status [16] was “R (EC50 values of less than or equal to 1 μM were considered to be actual responders)”, the Actual response status [17] was “NR (values of greater than 1 μM were considered to be actual non-responders)” and the IC50 [18] was greater than 10000 nM. It also gave an IC50 [19] of 1.4 nM, an IC50 [20] greater than 10000 nM and an IC50 [21] of 0.9 nM.
